In this assay the target is Somatostatin receptor type 2 (Mus musculus, UniProt P30875). As to the kind of experiment: Inhibition of [125I][Leu8,D-Trp22,[…]]somatostatin-28 binding to somatostatin receptor 2.

pIC50: −log10 of the molar value. “And” between values parts separate entries of the source, which are not always exact repeats. Identical values can stand only once.

Chain of Somatostatin receptor type 2 (P30875 whole entry): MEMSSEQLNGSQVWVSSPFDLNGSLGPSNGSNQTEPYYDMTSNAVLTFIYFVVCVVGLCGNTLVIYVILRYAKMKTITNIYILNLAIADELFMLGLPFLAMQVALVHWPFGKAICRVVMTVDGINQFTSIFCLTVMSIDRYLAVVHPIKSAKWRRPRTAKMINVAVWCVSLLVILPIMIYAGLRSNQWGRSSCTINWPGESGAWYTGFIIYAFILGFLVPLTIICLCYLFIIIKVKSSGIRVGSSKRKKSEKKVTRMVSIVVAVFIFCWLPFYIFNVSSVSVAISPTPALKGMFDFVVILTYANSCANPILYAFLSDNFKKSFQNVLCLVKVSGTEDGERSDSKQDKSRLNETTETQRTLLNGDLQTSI

Regarding `C[C@H](O)[C@@H]1NC(=O)[C@H](CCCCN)NC(=O)[C@@H](Cc2c[nH]c3ccccc23)NC(=O)[C@H](Cc2ccc(O)cc2)NC(=O)[C@@H](NC(=O)[C@@H](Cc2ccccc2)NC(=O)CN2CCN(CC(=O)O)CCN(CC(=O)O)CCN(CC(=O)O)CC2)CSSCC(C(=O)N[C@H](CO)[C@H](C)O)NC1=O` (stereo partly specified), the pIC50 is 9.34 and 8.66.

The values above are taken from BindingDB's records for doi:10.1021/jm0496335 (2005).
